# Settings: 10 mg/mL in Cremophor:EtOH (1:1) diluted 1:9 with D5W, room temperature (approximately 25° C.), 38 days
# Experimental: 10 ml of this solution was diluted 1:9 by the addition of 90 ml of D5W, and the resulting formulation was mixed by inversion until the solution appeared uniformly clear. The resulting mixture—an injectable formulation—was incubated at room temperature (approximately 25° C.) for 38 days.
compound,measurement,value
O=C(Nc1cc(C(F)(F)F)ccc1Oc1ccc(Cl)c2ccccc12)c1cc(Cl)ccc1O [5-Chloro-N-[2-(4-chloro-naphtalen-1-yloxy)-5-trifluoromethyl-phenyl] -2-hydroxy-benzamide],Stability of compound concentration in the injectable formulation,stable over the entire period

# From patent US20090048346A1, “THERAPEUTIC FORMULATIONS” (Myriad Genetics, Incorporated, priority 2004, published 2009)
